According to US20160067272A1, “METHODS FOR TREATING IMMUNE DISEASES” (priority 2013, published 2016):

How the values were obtained:
Human nTregs = assay: Human nTreg conversion into IL-17A producing cells; format: cell-based
Method: Several discrepancies have been reported for mechanisms promoting Th17 cell development in mice and human^15. […] In addition, it has been shown that IL-2 inhibits Th17 development^16. In contrast, human Th17 differentiation requires IL-1β and IL-6 and can be inhibited by TFG-β and IL-2^34. […] Therefore, it was tested whether NAD^+ was a universal molecule that was able to enhance nTreg conversion into Th17 cells in human and mice as well. Human nTregs were isolated and cultured in presence of increasing NAD^− concentrations and IL-2. […] Of note, human nTregs conversion into IL-17A^+ producing cells remained CD4^+CD25^+.
For isolation of human Treg cells, peripheral blood mononuclear cells were obtained from young healthy volunteers using density gradient centrifugation with Ficoll-Paque (STEMCELL TECHNOLOGIES, Vancouver, BC, Canada). Non-CD4^+ T cells were then depleted using biotin-conjugated monoclonal anti-human antibodies against CD8, CD14, CD15, CD16, CD19, CD36, CD56, CD123, TCRγ/δ, CD235a (Glycophorin A) and anti-biotin magnetic beads (Miltenyi Biotec). […]
For cultivation of human Treg cells, recombinant human IL-2 (EBIOSCIENCE) and superparamagnetic beads coupled with human α-CD3 and α-CD28 (LIFE TECHNOLOGIES, Carlsbad, Calif.) were used. Cells were cultured during 10 days and analyzed by flow cytometry.

naïve CD4+ T cells [1] = assay: Naïve CD4+ T cell differentiation without polarizing cytokines (Th0); format: cell-based, mouse
Method: It has been shown that NAD^+ can regulate T cell activation^36-38, but its role in T cell development was not shown. In this study, it was tested whether NAD^+ was able to regulate T cell differentiation in vitro. Naïve CD4^+ T cells were isolated from spleen of DBA mice and cultured for 96 hrs in presence of increasing NAD^+ concentration and in presence of recombinant IL-2 and stimulated with anti-CD3/CD28 antibodies. Cytokine expression and secretion were analyzed by flow cytometry and ELISA, respectively. […] Of note, the production of pro-inflammatory cytokines such as IL-6 and TNF-α or the immunosuppressive cytokine IL-10 were inhibited by NAD^| (FIG. 7A).
(§1) Single-cell leukocyte suspensions were obtained from spleens from 8-10 week old DBA mice and CD4^− T cells were isolated by negative selection using a CD4^+ T cell isolation kit (MILTENYI BIOTEC, Bergisch Gladbach, Germany). Cells were further sorted using α-CD4-PE (EBIOSCIENCE, San Diego, Calif.) and purities of CD4^+ T cells after isolation were >98%.
(§2) All recombinant cytokines and antibodies were purchased from EBIOSCIENCE except recombinant TGF-β cytokine (R&D SYSTEMS, Minneapolis, Minn.). After 96 hrs of culture supernatants and cells were collected and analyzed by ELISA and flow cytometry, respectively.
(§3) Fluorescently labeled anti-mouse α-CD4 (GK1.5), α-CD25 (PC61), α-IFN-γ (XMG1.2) and unlabeled α-CD16/CD32 (2.4G2) antibodies were obtained from BD BIOSCIENCES (San Jose, Calif.). Fluorescently labeled anti-mouse α-IL-4 (FJK-16s), α-IL-10 (JES5-16E3), α-IL-17A (eBio17B7), and anti-TGFβ (TW7-16B4) were obtained from eBIOSCIENCE (San Diego, Calif.). Intracellular staining for IL-4, IL-10, IL-17A, IFNγ and TGFβ was performed according to manufacturers' protocols. Splenocytes were re-stimulated in complete media (RPMI media containing 10% FCS, 1% L-Glutamine, 1% Penicillin/Streptomycin; all Bio Whittaker, Walkersville, Md.) for 4 hours at 37° C. with ionomycin, phorbol 12-myristate 13-acetate and Brefelding A (EBIOSCIENCE). Cells were fixed and permeabilized using CYTOFIX/CYTOPERM solution (BD BIOSCIENCES). Flow cytometry measurements of single-cell suspensions were performed on a FACSCalibur using standard procedures and data were analyzed using FLOWJO software (TREE STAR, Ashland, Oreg.).

naïve CD4+ T cells [2] = assay: Naïve CD4+ T cell differentiation under Th1 polarizing conditions (ELISA, flow cytometry); format: cell-based, mouse
Method: The inventors next investigated whether NAD^− regulates CD4^+ T cell differentiation in Th1 polarizing conditions. Isolated naïve CD4^+ T cells were cultured with anti-CD3/CD28 antibodies in presence of recombinant IL-12 and IL-2 cytokines and anti-IL4 antibody. […] In contrast to Th0 polarizing conditions, NAD^+ induced a robust IL-10 secretion (>3500 pg/ml) in Th1 cytokine environment (FIG. 1A). Furthermore, pro-inflammatory cytokines such as TNF-α and IL-6 were reduced by NAD^+ (FIG. 7C). […] Furthermore, the study tested whether NAD^+ promoted the shift of human CD4^+ T helper cells in Th1 polarizing conditions towards IL-10 cytokine production. Human peripheral blood CD4^| T cells were activated with anti-CD3/CD28 antibodies under Th1 polarizing conditions (recombinant IL-12 and IL-2 cytokines and anti-IL4 antibody) with increasing concentrations of NAD+. After 96 hours of culture, CD4^+IL-10^+IFNγ^+ cell frequency was assessed by flow cytometry analysis.
as §1, §2, §3

naïve CD4+ T cells [3] = assay: Naïve CD4+ T cell differentiation under Th17 polarizing conditions; format: cell-based, mouse
Source text: To elucidate the role of NAD^+ on CD4^− T cell differentiations in Th17 polarizing conditions, isolated naïve CD4^+ T cells were activated with anti-CD3/CD28 antibodies in the presence of recombinant TGFβ, IL-6 and anti-IL-4, anti-IL-12, and anti-IFNγ antibodies. […] Of note, expression of the pro-inflammatory cytokine TNF-α was inhibited in presence of NAD^+ (FIG. 1E).
as §1, §2, §3

`NC(=O)c1ccc[n+]([C@@H]2O[C@H](COP(=O)([O-])OP(=O)(O)OC[C@H]3O[C@@H](n4cnc5c(N)ncnc54)[C@H](O)[C@@H]3O)[C@@H](O)[C@H]2O)c1` [NAD+, nicotinamide adenine dinucleotide] was tested, and the IL-17A cytokine production (Human nTregs; increasing NAD+ and IL-2, ELISA) was “enhance”, the “number of IL-17A+ cells” value (Human nTregs; increasing NAD+ and IL-2, flow cytometry) was “increased” and the IFNγ cytokine production (naïve CD4+ T cells [1]; Th0, 96 hrs, ELISA) was “promote a robust”. The IL-4 cytokine production (naïve CD4+ T cells [1]; Th0, 96 hrs, ELISA) was “inhibit”, the IL-6 production (naïve CD4+ T cells [1]; Th0, 96 hrs, ELISA) was “inhibited” and the IL-10 production (naïve CD4+ T cells [1]; Th0, 96 hrs, ELISA) was “inhibited”. For the same molecule, the IL-17 cytokine production (naïve CD4+ T cells [1]; Th0, 96 hrs, ELISA) was “promote a robust”, the TNF-α production (naïve CD4+ T cells [1]; Th0, 96 hrs, ELISA) was “inhibited” and the “CD4+IFNγ+ cell frequency” value (naïve CD4+ T cells [1]; Th0, flow cytometry) was “increased”. For the same molecule, the “CD4+IL-4+ cell frequency” value (naïve CD4+ T cells [1]; Th0, flow cytometry) was “reduced”, the “CD4+IL-17+ cell frequency” value (naïve CD4+ T cells [1]; Th0, flow cytometry) was “increased” and the TGFβ production (naïve CD4+ T cells [1]; Th0 polarizing conditions) was “no TGFβ production”. The IFN-γ cytokine production (naïve CD4+ T cells [2]; 96 hrs, ELISA) was “did not change”, the IL-6 production (naïve CD4+ T cells [2]; 96 hrs, ELISA) was “reduced” and the IL-10 secretion (naïve CD4+ T cells [2]; 96 hrs, ELISA) was > 3500 pg/mL. For the same molecule, the IL-17A cytokine production (naïve CD4+ T cells [2]; 96 hrs, ELISA) was 400 pg/mL, the TNF-α production (naïve CD4+ T cells [2]; 96 hrs, ELISA) was “reduced” and the “IL-10 production by Th1-IFN-γ producing cells” value (naïve CD4+ T cells [2]; flow cytometry) was “promoted”. For the same molecule, the “frequency of CD4+IFN-γ cells” value (naïve CD4+ T cells [2]; flow cytometry) was “increased frequencies”, the “frequency of CD4+IL17A+ cells” value (naïve CD4+ T cells [2]; flow cytometry) was “increased frequencies” and the “frequency of CD4+IL-10+ cells” value (naïve CD4+ T cells [2]; flow cytometry) was “increased frequencies”. The IL-10 cytokine production (naïve CD4+ T cells [3]; ELISA) was “reduced”, the IL-17 cytokine production (naïve CD4+ T cells [3]; ELISA) was “did not affect” and the TNF-α expression (naïve CD4+ T cells [3]; ELISA) was “inhibited”. The “CD4+IL-17A+ cells” value (naïve CD4+ T cells [3]; flow cytometry) was “no changes”.
